Columns and labels:
[1] = system: log phase and stationary phase B. burgdorferi culture; assay: Antibiotic exposure assay, SYBR Green I/PI (drugs alone and combinations); settings: for Live cell %, ten day old stationary phase culture (in brackets): 10 μg/mL drugs or combinations, 7 days; for viability at 10 µg/mL: Borreliella burgdorferi, 168 h, read-out: Live Cell % (residual viable B. burgdorferi), ten-day-old stationary phase culture enriched with micro-colonies, 10 μg/mL each drug, 7 days
Procedure: To qualitatively determine the effect of antibiotics, 10 μL of each compound from the pre-diluted plate or pre-diluted stock was added to stationary phase B. burgdorferi culture in the 96-well plate. The final volume per well was adjusted to 100 μL at a concentration of 10 μg/mL for each antibiotic. Plates were sealed and placed in a 33° C. incubator for 7 days. The SYBR Green I/PI viability assay was used to assess the live and dead cells after antibiotic exposure as described (Feng, Wang, Shi, et al., 2014). Briefly, 10 μL of SYBR Green I (10,000×stock, Invitrogen) was mixed with 30 μL propidium iodide (PI, 20 mM) into 1.0 mL of sterile dH2O. Then, 10 μL of staining mixture was added to each well and mixed thoroughly. The plates were incubated at room temperature in the dark for 15 minutes followed by plate reading at excitation wavelength at 485 nm and the fluorescence intensity at 535 nm (green emission) and 635 nm (red emission) in microplate reader (HTS 7000 plus Bio Assay Reader, PerkinElmer Inc., USA). With least-square fitting analysis, the regression equation and regression curve of the relationship between percentage of live bacteria and green/red fluorescence ratios was obtained. The regression equation was used to calculate the percentage of live cells in each well of the 96-well plate.
To qualitatively determine the effect of antibiotics, 10 μL of each compound (final concentration 50 μM) from the pre-diluted plate or pre-diluted stock was added to round body form or stationary phase B. burgdorferi culture in the 96-well plate. The final volume per well was adjusted to 100 μL. Plates were sealed and placed in a 33° C. incubator for 7 days. The SYBR Green I/PI viability assay was used to assess the live and dead cells after antibiotic exposure as described (Feng, Wang, Shi, et al., 2014). Briefly, 10 μL of SYBR Green I (10,000×stock, Invitrogen) was mixed with 30 μL propidium iodide (PI, 20 mM, Sigma-Aldrich) into 1.0 mL of sterile dH2O. Then, 10 μL staining mixture was added to each well and mixed thoroughly. The plates were incubated at room temperature in the dark for 15 minutes followed by plate reading at excitation wavelength at 485 nm and the fluorescence intensity at 535 nm (green emission) and 635 nm (red emission) in microplate reader (HTS 7000 plus Bio Assay Reader, PerkinElmer Inc., USA). With least-square fitting analysis, the regression equation and regression curve of the relationship between percentage of live and dead bacteria as shown in green/red fluorescence ratios was obtained. The regression equation was used to calculate the percentage of live cells in each well of the 96-well plate.
Round body form and ten day old stationary phase (in brackets) B. burgdorferi culture was treated with 10 μg/mL drugs or their combinations for 7 days. Residual viable B. burgdorferi was calculated according to the regression equation and ratio of Green/Red fluorescence obtained by SYBR Green I/PI assay as described (Feng, Wang, Shi, et al., 2014). Direct microscopy counting was employed to rectify the results of the SYBR Green I/PI assay. […] Abbreviation: Dox, doxcycline; CefP, cefoperazone; DAP, daptomycin; CefM, cefmetazole; Scp, sulfachlorpyridazine; Art, artemisinin; Nft, nitrofurantoin.

[2] = system: round body form of B. burgdorferi; assay: SYBR Green I/PI assay on amoxicillin-induced round body form; settings: for Live cell %, round body form: 10 μg/mL drugs or combinations; for Live cell %, round body form / Ratios of green/red fluorescence, Primary screening / Ratios of green/red fluorescence, Rescreening (first column) / Ratios of green/red fluorescence, Rescreening (second column): 7 days; for viability at 50 µM: Borreliella burgdorferi, 168 h, read-out: Residual viable cells (SYBR Green I/PI assay); for Ratios of green/red fluorescence, Primary screening / Ratios of green/red fluorescence, Rescreening (first column) / Ratios of green/red fluorescence, Rescreening (second column): round body form, 50 μM
[3] = system: stationary phase B. burgdorferi persisters (strain B31); assay: SYBR Green I/PI viability assay (plate reader), FDA-approved drug library screen; settings: for Ratio of Green/Red fluorescence, Primary screening / Ratio of Green/Red fluorescence, Rescreening (first column) / Ratio of Green/Red fluorescence, Rescreening (second column): 50 μM, 7 days, stationary phase; for viability at 50 µM: Borreliella burgdorferi, 168 h, read-out: Residual viable cells (regression equation, SYBR Green I/PI assay)
[4] = system: stationary phase B. burgdorferi persisters (strain B31); assay: epifluorescence microscope counting after SYBR Green I/PI staining, FDA drug screen; settings: Borreliella burgdorferi, 168 h, read-out: Residual viable cells (epifluorescence microscope counting)
[5] = system: B. burgdorferi (growing, strain B31); assay: MIC determination, standard microdilution method; assay type: cell-based, Borrelia burgdorferi; settings: MIC test
[6] = system: S. aureus strains (Newman, USA300, CA-409, CA-127, NY-315); assay: Rapid SYBR Green/PI antibiotic susceptibility test; assay type: cell-based, Staphylococcus aureus

SMILES | Ratio of Green/Red fluorescence, Primary screening [3] | Ratio of Green/Red fluorescence, Rescreening (first column) [3] | Ratio of Green/Red fluorescence, Rescreening (second column) [3] | viability at 50 µM [3] [%] | viability at 50 µM [4] [%] | viability at 10 µg/mL [1] [%] | other results
O=C1CN(/N=C/c2ccc([N+](=O)[O-])o2)C(=O)N1 [Nft, nitrofurantoin] |  |  |  |  |  |  | Live cell %, ten day old stationary phase culture (in brackets) [1]: 82%; Live cell %, round body form [2]: 33%
CN(C)CCn1nnnc1SCC1=C(C(=O)O)N2C(=O)[C@@H](NC(=O)Cc3csc(N)n3)[C@H]2SC1 [Cefotiam] | 6.41 | 7.55 | 6.21 | 43 | 42 |  | sensitivity of log phase / multiplying B. burgdorferi (words, FIG. 12) [5]: very sensitive
CO[C@H]1/C=C/O[C@@]2(C)Oc3c(C)c(O)c4c(O)c(c(/C=N/N5CCN(C)CC5)c(O)c4c3C2=O)NC(=O)/C(C)=C\C=C\[C@H](C)[C@H](O)[C@@H](C)[C@@H](O)[C@@H](C)[C@H](OC(C)=O)[C@@H]1C [Rif, rifampin] |  |  |  |  |  | 82 | 
CCN(CCO)CCCC(C)Nc1ccnc2cc(Cl)ccc12 (centres unmarked) [Hcq, hydroxychloroquine] |  |  |  |  |  | 71 | 
CO[C@@]1(NC(=O)CSCC#N)C(=O)N2C(C(=O)O)=C(CSc3nnnn3C)CS[C@@H]21 [Cefmetazole] | 6.80 | 7.38 | 6.00 | 43 |  |  | Live cell %, ten day old stationary phase culture (in brackets) [1]: 53%; Live cell %, round body form [2]: 34%; viability at 50 µM [2]: 33%; Ratios of green/red fluorescence, Primary screening [2]: 6.13; Ratios of green/red fluorescence, Rescreening (first column) [2]: 6.25; Ratios of green/red fluorescence, Rescreening (second column) [2]: 6.46
CC1(C)S[C@@H]2[C@H](NC(=O)C3(N)CCCCC3)C(=O)N2[C@H]1C(=O)O [Cyclacillin] | 6.81 | 6.88 | 7.64 | 53 | 51 |  | 
CC[C@H]1OC(=O)[C@H](C)[C@@H](O[C@H]2C[C@@](C)(OC)[C@@H](O)[C@H](C)O2)[C@H](C)[C@@H](O[C@@H]2O[C@H](C)C[C@H](N(C)C)[C@H]2O)[C@](C)(O)C[C@@H](C)C(=O)[C@H](C)[C@@H](O)[C@]1(C)O [erythromycin] |  |  |  |  |  |  | cut-off (averaged proportion of killed cells) for resistant strains ([6]; 100 μg/mL, 1.5 hours): −0.1; cut-off (averaged proportion of killed cells) for susceptible strains ([6]; 100 μg/mL, 1.5 hours): −0.4; percent killed, resistant strain NY-315 ([6]; 30 minutes, kanamycin 25, erythromycin 400 μg/mL): 17%; percent killed, sensitive Newman strain ([6]; 30 minutes, kanamycin 25, erythromycin 400, ciprofloxacin 50, gentamicin 400 μg/mL): 50%
CC1COc2c(N3CCN(C)CC3)c(F)cc3c(=O)c(C(=O)O)cn1c23 (centres unmarked) [Ofl, ofloxacin] |  |  |  |  |  | 81 | 
CC[C@H]1OC(=O)[C@H](C)[C@@H](O[C@H]2C[C@@](C)(OC)[C@@H](O)[C@H](C)O2)[C@H](C)[C@@H](O[C@@H]2O[C@H](C)C[C@H](N(C)C)[C@H]2O)[C@](C)(O)C[C@@H](C)CN(C)[C@H](C)[C@@H](O)[C@]1(C)O [Azithromycin] | 8.33 | 8.10 | 7.92 | 80 | 77 |  | viability at 50 µM [2]: 47%; Ratios of green/red fluorescence, Primary screening [2]: 6.79; Ratios of green/red fluorescence, Rescreening (first column) [2]: 6.52; Ratios of green/red fluorescence, Rescreening (second column) [2]: 6.42
Clc1ccc(COC(Cn2ccnc2)c2ccc(Cl)cc2Cl)c(Cl)c1 (centres unmarked) [Mcz, miconazole] |  |  |  |  |  | 65 | sensitivity of log phase / multiplying B. burgdorferi (words, FIG. 12) [5]: less potent

Reference: patent US20170058314A1, “NOVEL METHODOLOGY FOR IDENTIFYING ANTI-PERSISTER ACTIVITY AND ANTIMICROBIAL SUSCEPTIBILITY FOR BORRELIA BURGDORFERI AND OTHER BACTERIA” (priority 2014, published 2017)
